# Assay results taken from patent US11229622B2, “Cosmetological and pharmaceutical composition based on combinatorial quercetin derivative” (priority 2017, dated 2022).
# Experiments:
# [1] = tested on: carrageenan edema of the foot; conditions: from references [14, 16]; cited from earlier work
# [2] = Biological activity of fully substituted quercetins (test not specified)
# [3] = tested on: systemic blood pressure of rabbits; assay: Antihypertensive effect in rabbits; assay type: in vivo; conditions: intravenous, 3 hours, Octadine 15.0 mg/kg (0.06 mmol/kg), Greenflo 10.0 mg/kg (0.05 mmol/kg)
# [4] = tested on: systemic blood pressure of cats; assay: Antihypertensive effect in cats; assay type: in vivo; conditions: 3 hours, Octadine 20.0 mg/kg (0.08 mmol/kg), Greenflo 10.0 mg/kg (0.05 mmol/kg)
# SBP of white rats = assay: Antihypertensive effect in normotensive white rats; assay type: in vivo; conditions: for Antihypertensive effect, %: intravenous, after 3 hours, Octadine 6.2 mg/kg, Greenflo 5.0 mg/kg (as thick chlorophyllipt extract), 0.025 mmol/kg
# Description: The antihypertensive effect of the drugs was evaluated after 3 hours of observation. Digital data table.
# For an objective comparison of the activity of the studied substances, ED30 was experimentally established (a unit of action that causes a decrease in SBP by 30%) for each drug. For this purpose, the value of the hypotensive effect of various doses of substances in three groups of five white rats was determined in experiment, the arithmetic mean of the obtained series and their standard errors were calculated. Then, digital data was plotted and ED30 was calculated.
# An indicator of the true hypotensive effect of a new chemical is its ability to lower pathologically elevated SBP. To solve this problem, 5 adult white rats with spontaneous hypertension (weight 260-280 g) were used, in which, before the experiment, the level of SBP averaged 180±1.7 mm Hg. For comparison, an experiment was conducted on 5 white rats with normal SBP. 17.
compound,measurement,setting,value
"O=C(O)Cc1ccccc1Nc1c(Cl)cccc1Cl [DN, sodium diclofenac]","ED 50, mg/kg",[1],"8.0 [14, 16] mg/kg"
"O=C(O)CCC(=O)Oc1cc(OC(=O)CCC(=O)O)c2c(=O)c(OC(=O)CCC(=O)O)c(-c3ccc(OC(=O)CCC(=O)O)c(OC(=O)CCC(=O)O)c3)oc2c1 [Fully succinylated quercetin, pentasuccinyl quercetin]",biological activity,[2],did not exhibit biological activity
N=C(N)NCCN1CCCCCCC1 [Octadine],"Antihypertensive effect, %",[3],32.0 ± 6.1%
same,"Antihypertensive effect, %",[4],35.0 ± 9.9%
same,"The effect, % (hypotensive)",SBP of white rats; dose 5.0 mg/kg,18.0 ± 2.7%
same,"The effect, % (hypotensive)",SBP of white rats; dose 10.0 mg/kg,26.0 ± 1.5%
same,"The effect, % (hypotensive)",SBP of white rats; dose 20.0 mg/kg,33.0 ± 4.9%
same,"Antihypertensive effect, %",SBP of white rats,19.7 ± 2.2%
same,"Antihypertensive effect, %",SBP of white rats; listed as octadine,19.7±2.2%
